Measured values taken from ChEMBL document CHEMBL5291721, “A preclinical secondary pharmacology resource illuminates target-adverse drug reaction associations of marketed drugs” (Nat Commun, 2023).

Legend:
[1] = target: T1, Cholecystokinin receptor type A (Homo sapiens, UniProt P32238)
T1 sequence (P32238 whole entry): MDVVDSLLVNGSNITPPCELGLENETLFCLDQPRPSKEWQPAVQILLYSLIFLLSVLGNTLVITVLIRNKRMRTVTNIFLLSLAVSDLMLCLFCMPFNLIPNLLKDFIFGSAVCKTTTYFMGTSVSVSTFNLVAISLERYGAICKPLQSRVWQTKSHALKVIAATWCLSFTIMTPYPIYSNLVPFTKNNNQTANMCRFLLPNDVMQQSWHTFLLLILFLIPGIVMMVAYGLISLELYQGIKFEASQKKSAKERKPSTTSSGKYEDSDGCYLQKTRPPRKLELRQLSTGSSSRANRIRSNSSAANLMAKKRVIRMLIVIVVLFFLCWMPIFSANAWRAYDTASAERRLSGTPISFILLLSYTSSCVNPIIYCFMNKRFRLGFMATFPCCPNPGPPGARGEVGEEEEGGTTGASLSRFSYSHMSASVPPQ

[2] = target: Gamma-aminobutyric acid receptor subunit alpha-1 (Rattus norvegicus, UniProt P62813); assay type: functional
[3] = target: Beta-1 adrenergic receptor (Homo sapiens, UniProt P08588); assay type: functional
[4] = target: T2, Alpha-1A adrenergic receptor (Homo sapiens, UniProt P35348); assay type: functional, cell-based
T2 sequence (P35348 whole entry): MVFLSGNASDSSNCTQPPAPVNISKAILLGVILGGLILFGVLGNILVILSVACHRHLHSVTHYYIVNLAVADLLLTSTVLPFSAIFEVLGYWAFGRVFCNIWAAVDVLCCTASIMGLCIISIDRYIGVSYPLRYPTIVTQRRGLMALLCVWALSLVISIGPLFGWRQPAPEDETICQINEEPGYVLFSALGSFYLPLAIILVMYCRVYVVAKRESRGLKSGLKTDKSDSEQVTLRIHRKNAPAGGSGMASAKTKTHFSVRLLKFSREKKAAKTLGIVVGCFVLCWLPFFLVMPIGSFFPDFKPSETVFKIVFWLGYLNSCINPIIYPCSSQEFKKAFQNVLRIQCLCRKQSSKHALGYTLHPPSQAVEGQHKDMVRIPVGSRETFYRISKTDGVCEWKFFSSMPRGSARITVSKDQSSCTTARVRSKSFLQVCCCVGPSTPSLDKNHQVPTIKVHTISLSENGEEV

[5] = target: T3, Adenosine receptor A1 (Homo sapiens, UniProt P30542)
T3 sequence (P30542 whole entry): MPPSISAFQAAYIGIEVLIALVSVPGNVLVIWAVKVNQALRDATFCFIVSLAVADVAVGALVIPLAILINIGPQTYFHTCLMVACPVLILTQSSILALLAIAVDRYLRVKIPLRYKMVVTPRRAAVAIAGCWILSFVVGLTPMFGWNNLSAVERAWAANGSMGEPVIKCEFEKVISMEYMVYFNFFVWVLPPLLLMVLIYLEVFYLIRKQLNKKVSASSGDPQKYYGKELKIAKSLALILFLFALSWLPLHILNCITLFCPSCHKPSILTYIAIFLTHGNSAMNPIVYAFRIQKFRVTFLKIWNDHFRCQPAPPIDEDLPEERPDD

[6] = target: T4, Androgen receptor (Rattus norvegicus, UniProt P15207); assay type: functional
T4 sequence (P15207 whole entry): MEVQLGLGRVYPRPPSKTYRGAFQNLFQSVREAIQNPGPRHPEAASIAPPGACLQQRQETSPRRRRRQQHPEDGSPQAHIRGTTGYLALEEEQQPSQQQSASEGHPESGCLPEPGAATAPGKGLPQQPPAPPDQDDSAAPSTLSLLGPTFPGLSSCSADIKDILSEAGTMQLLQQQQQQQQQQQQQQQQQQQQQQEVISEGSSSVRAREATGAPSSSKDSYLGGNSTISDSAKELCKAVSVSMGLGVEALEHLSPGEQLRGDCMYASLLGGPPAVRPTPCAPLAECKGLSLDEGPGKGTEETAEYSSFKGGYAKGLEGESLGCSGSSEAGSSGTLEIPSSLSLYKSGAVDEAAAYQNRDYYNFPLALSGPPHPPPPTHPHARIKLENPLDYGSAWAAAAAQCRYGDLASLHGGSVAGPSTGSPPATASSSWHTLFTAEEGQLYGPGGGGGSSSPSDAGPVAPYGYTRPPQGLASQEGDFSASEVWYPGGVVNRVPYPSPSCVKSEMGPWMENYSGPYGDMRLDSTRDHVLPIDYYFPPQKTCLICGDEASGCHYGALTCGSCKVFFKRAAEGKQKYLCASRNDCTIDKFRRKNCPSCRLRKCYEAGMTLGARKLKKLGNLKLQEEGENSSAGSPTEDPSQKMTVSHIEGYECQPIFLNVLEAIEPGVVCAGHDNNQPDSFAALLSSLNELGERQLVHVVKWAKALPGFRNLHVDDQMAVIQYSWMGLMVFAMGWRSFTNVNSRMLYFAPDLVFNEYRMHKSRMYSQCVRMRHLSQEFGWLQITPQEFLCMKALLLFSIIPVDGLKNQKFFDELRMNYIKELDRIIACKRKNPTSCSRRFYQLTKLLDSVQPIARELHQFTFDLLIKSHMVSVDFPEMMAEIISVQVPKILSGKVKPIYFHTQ

[7] = target: T5, Adenosine receptor A3 (Homo sapiens, UniProt P0DMS8)
T5 sequence (P0DMS8 whole entry): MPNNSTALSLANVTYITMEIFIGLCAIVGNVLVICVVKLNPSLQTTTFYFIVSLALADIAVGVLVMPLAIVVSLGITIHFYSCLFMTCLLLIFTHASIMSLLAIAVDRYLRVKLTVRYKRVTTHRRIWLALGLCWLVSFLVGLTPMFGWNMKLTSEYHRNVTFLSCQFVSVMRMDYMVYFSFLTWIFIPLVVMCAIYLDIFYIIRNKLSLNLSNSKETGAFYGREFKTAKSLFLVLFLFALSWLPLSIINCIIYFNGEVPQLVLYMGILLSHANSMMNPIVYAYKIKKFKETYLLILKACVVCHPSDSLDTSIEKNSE

[8] = target: T4, Androgen receptor; assay type: functional; remark: listed apart in the source
[9] = target: Vasopressin V1a receptor (Homo sapiens, UniProt P37288)
[10] = target: Glutamate receptor ionotropic, NMDA 1 (Rattus norvegicus, UniProt P35439)
[11] = target: Melanocortin receptor 4 (Homo sapiens, UniProt P32245)
[12] = target: Cannabinoid receptor 1 (Homo sapiens, UniProt P21554)
[13] = target: Mu-type opioid receptor (Homo sapiens, UniProt P35372)
[14] = target: T2, Alpha-1A adrenergic receptor
Note: assay procedure not described here.

Sequence of Cannabinoid receptor 1 (P21554 whole entry): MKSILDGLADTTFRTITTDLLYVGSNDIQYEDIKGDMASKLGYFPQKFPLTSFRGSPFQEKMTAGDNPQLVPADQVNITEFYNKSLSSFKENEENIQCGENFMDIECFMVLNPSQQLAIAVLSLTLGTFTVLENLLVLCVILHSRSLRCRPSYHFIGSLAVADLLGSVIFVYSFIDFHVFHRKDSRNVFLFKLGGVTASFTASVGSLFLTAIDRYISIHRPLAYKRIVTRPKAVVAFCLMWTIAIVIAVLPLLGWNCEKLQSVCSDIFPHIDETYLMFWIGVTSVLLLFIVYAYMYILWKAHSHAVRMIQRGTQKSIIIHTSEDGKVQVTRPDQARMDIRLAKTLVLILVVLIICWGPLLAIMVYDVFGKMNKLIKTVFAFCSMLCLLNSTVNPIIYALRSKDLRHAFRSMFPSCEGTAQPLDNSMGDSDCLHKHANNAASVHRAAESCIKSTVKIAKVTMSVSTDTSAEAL
Sequence of Beta-1 adrenergic receptor (P08588 whole entry): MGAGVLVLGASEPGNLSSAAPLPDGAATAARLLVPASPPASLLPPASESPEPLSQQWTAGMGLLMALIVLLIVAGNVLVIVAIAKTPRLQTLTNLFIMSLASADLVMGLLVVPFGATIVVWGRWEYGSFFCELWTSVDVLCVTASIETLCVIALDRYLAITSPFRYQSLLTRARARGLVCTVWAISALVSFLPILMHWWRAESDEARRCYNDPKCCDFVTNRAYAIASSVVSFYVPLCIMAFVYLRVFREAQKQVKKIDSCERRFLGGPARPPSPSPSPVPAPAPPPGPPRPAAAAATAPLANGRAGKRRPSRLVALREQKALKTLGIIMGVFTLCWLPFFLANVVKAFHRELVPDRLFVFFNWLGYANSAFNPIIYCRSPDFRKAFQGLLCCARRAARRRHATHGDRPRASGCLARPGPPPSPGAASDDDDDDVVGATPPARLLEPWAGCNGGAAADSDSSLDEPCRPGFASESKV
Sequence of Mu-type opioid receptor (P35372 whole entry): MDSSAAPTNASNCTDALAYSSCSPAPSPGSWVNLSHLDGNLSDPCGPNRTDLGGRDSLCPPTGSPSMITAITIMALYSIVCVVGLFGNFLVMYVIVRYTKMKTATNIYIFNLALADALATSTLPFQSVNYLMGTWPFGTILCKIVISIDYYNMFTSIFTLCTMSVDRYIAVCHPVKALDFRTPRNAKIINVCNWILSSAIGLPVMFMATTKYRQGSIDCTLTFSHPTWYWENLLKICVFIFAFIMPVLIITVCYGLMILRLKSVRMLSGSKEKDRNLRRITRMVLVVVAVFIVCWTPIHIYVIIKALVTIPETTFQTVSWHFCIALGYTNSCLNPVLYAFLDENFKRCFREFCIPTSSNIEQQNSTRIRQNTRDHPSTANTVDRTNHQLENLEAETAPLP
Sequence of Vasopressin V1a receptor (P37288 whole entry): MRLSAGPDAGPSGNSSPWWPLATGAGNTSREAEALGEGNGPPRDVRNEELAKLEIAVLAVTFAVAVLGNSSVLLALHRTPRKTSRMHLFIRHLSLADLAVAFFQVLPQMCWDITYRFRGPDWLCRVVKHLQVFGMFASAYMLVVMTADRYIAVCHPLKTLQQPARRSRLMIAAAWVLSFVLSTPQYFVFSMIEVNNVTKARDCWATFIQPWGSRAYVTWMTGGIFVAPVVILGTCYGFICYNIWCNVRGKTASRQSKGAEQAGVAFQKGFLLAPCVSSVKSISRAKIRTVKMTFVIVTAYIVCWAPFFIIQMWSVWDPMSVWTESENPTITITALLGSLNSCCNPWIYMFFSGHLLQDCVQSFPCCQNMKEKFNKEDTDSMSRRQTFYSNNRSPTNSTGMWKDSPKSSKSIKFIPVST
Sequence of Melanocortin receptor 4 (P32245 whole entry): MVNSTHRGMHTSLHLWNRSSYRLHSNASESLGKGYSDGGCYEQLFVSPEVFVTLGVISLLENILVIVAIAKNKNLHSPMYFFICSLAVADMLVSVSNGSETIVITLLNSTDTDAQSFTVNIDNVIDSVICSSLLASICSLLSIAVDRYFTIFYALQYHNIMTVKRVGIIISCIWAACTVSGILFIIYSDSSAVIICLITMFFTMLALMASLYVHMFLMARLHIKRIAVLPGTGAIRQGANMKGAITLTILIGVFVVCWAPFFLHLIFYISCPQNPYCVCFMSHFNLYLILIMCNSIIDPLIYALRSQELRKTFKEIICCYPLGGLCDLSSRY
Sequence of Gamma-aminobutyric acid receptor subunit alpha-1 (P62813 whole entry): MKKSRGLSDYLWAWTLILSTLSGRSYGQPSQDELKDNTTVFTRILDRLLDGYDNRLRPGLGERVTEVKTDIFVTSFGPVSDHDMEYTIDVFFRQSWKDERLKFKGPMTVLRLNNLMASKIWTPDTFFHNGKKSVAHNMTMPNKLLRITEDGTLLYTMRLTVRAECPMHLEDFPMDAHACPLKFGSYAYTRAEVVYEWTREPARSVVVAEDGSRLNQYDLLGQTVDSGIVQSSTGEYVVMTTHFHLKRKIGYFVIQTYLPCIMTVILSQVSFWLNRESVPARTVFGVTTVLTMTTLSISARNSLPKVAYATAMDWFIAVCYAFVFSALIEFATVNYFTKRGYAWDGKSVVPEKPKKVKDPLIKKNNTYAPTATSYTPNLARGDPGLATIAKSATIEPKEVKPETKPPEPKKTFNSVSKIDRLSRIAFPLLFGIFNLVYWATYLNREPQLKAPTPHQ

For `CCC(C(=O)O)c1ccc(N2Cc3ccccc3C2=O)cc1` (stereo not given) [INDOBUFEN], the AC50 [1] was over 30 µM, the AC50 [2] was over 30 µM and the AC50 [3] was over 30 µM. For the same compound, the AC50 [4] was 5.3 µM, the AC50 [5] was over 30 µM and the AC50 [6] was over 30 µM. For the same compound, the AC50 [7] was over 30 µM, the AC50 [8] was over 30 µM and the AC50 [9] was over 30 µM. It also gave an AC50 [10] of over 30 µM.
`CC(C)OC(=O)CCC/C=C\C[C@@H]1[C@@H](CC[C@@H](O)CCc2ccccc2)[C@H](O)C[C@@H]1O` [LATANOPROST] gave an AC50 [1] of over 30 µM, an AC50 [2] of over 30 µM and an AC50 [3] of over 30 µM. For the same compound, the AC50 [5] was over 30 µM, the AC50 [6] was over 30 µM and the AC50 [7] was over 30 µM. For the same compound, the AC50 [8] was over 30 µM, the AC50 [9] was over 30 µM and the AC50 [10] was over 30 µM.
In the case of `CCC1(CC)C(=O)NCC(C)C1=O` (stereo not given) [METHYPRYLON], the AC50 [1] is reported as over 30 µM, the AC50 [2] is reported as over 30 µM and the AC50 [3] is reported as over 30 µM. It also gave an AC50 [5] of over 30 µM, an AC50 [7] of over 30 µM and an AC50 [8] of over 30 µM. The AC50 [9] was over 30 µM and the AC50 [10] was over 30 µM.
With `CCCC(C)C1(CC)C(=O)NC(=O)NC1=O` (stereo not given) [PENTOBARBITAL] the AC50 [1] was over 10 µM, the AC50 [11] was over 10 µM and the AC50 [12] was over 10 µM. The AC50 [3] was over 10 µM, the AC50 [4] was over 30 µM and the AC50 [5] was over 10 µM. It also gave an AC50 [7] of over 10 µM, an AC50 [9] of over 10 µM and an AC50 [10] of over 10 µM. For the same compound, the AC50 [13] was over 30 µM and the AC50 [14] was over 30 µM.
`CC[C@@H]1C(=O)OC[C@@H]1Cc1cncn1C` [PILOCARPINE] showed an AC50 [1] of over 30 µM, an AC50 [2] of over 10 µM and an AC50 [11] of over 30 µM. It also gave an AC50 [12] of 16.1 µM, an AC50 [4] of over 30 µM and an AC50 [5] of over 30 µM. It also gave an AC50 [7] of over 30 µM, an AC50 [9] of over 30 µM and an AC50 [10] of over 10 µM. For the same compound, the AC50 [13] was over 30 µM and the AC50 [14] was over 10 µM.
Compound `O=C(O)C[C@H](O)C[C@H](O)/C=C/c1c(C2CC2)nc2ccccc2c1-c1ccc(F)cc1` [PITAVASTATIN] has an AC50 [1] of over 10 µM, an AC50 [2] of over 10 µM and an AC50 [11] of over 10 µM. For the same compound, the AC50 [12] was over 10 µM, the AC50 [3] was over 30 µM and the AC50 [4] was over 30 µM. For the same compound, the AC50 [5] was over 10 µM, the AC50 [7] was over 30 µM and the AC50 [9] was over 10 µM. The AC50 [10] was over 10 µM, the AC50 [13] was over 30 µM and the AC50 [14] was over 10 µM.
For `C/C(O)=C(\C#N)C(=O)Nc1ccc(C(F)(F)F)cc1` [TERIFLUNOMIDE], the AC50 [1] was over 30 µM, the AC50 [2] was over 30 µM and the AC50 [3] was over 30 µM. For the same compound, the AC50 [4] was 21 µM, the AC50 [5] was over 30 µM and the AC50 [7] was over 30 µM. For the same compound, the AC50 [8] was over 30 µM, the AC50 [9] was over 30 µM and the AC50 [13] was over 30 µM.
Work on `COc1cc2c(N)nc(N3CCN(C(=O)OCC(C)(C)O)CC3)nc2c(OC)c1OC` [TRIMAZOSIN] yielded an AC50 [1] of over 30 µM, an AC50 [2] of over 30 µM and an AC50 [3] of over 30 µM. The AC50 [4] was 1.2 µM, the AC50 [5] was over 30 µM and the AC50 [7] was over 30 µM. It also gave an AC50 [8] of 17 µM, an AC50 [9] of over 30 µM and an AC50 [10] of over 30 µM. For the same compound, the AC50 [14] was 1.8 µM.
